For 1 substance, EC50 results are on record in article PMC2831033, “Characterization of a molecular switch system that regulates gene expression in mammalian cells through a small molecule” (2010).

The target of test [1] is T1, retinoid X receptor wild type (RXRwt) (Homo sapiens, UniProt P19793).
T1 construct: gene RXRA; full length RXRwt
Description: luciferase reporter (CRBPII response element) activation in transfected HEK293T cells. The test is classed as cell-based. (In general: Reporter assays use an easily measured gene product as a stand-in for the process of interest.)

Test [2] concerns the target T2, RXR variant Q275C;I310M;F313I (QCIMFI) (Homo sapiens, UniProt P19793, Q275C/I310M/F313I).
T2 construct: gene RXRA; RXR variant LBD with RXR DBD (QCIMFI)
T2 sequence (P19793 1-462 Q275C/I310M/F313I): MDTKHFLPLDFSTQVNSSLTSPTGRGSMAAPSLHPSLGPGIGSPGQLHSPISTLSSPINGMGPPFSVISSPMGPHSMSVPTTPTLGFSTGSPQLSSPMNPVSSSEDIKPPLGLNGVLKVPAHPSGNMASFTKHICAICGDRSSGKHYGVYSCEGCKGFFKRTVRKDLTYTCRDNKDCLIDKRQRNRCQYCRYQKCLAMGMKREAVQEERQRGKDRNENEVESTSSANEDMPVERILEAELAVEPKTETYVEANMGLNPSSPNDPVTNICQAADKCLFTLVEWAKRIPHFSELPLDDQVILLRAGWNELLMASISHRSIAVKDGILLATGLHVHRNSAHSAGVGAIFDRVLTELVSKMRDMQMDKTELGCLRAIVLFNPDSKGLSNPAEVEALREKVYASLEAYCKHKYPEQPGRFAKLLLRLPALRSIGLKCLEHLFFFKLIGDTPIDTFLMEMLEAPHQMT
Description: luciferase reporter activation in transfected HEK293T cells. The test is classed as cell-based.

T1 sequence (P19793 whole entry): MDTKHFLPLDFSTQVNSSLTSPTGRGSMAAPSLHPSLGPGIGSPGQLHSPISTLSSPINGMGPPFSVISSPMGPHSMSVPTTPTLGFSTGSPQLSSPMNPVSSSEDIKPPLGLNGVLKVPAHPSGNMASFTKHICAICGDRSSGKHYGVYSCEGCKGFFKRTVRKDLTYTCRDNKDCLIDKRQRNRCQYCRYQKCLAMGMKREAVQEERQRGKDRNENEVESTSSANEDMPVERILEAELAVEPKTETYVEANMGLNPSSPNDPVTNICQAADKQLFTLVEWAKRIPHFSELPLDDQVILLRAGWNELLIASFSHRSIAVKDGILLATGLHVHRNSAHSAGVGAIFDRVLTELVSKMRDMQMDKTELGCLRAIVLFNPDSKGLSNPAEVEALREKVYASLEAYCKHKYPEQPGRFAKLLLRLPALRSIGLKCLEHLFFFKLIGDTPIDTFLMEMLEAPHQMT

Take LG335: the EC50 amounted to 338 nM in test [1] and 38 nM in test [2].

What is called EC50 is the midpoint of the concentration-response curve. A lower EC50 goes with higher potency in that assay.
